Data from article PMC10663540, “Structure-based discovery of dual pathway inhibitors for SARS-CoV-2 entry” (Nature Communications, 2023).
Several values for one entry are separate records, joined by “and”; a condition that tells them apart may be missing. Equal entries are not always repeated. Where two headings read alike, the source gives them in different places.

Experiments:
SARS-CoV-2 = type: cell-based
TMPRSS2 [1] = target: T1, TMPRSS2 (Homo sapiens, UniProt O15393); assay: biochemical; type: biochemical; details: for inhibition at 0.000610352 µM / inhibition at 0.0012207 µM / inhibition at 0.00244141 µM / inhibition at 0.00488281 µM / inhibition at 0.00976562 µM / inhibition at 0.0195312 µM / inhibition at 0.0390625 µM / inhibition at 0.078125 µM / inhibition at 0.15625 µM / inhibition at 0.3125 µM / inhibition at 0.625 µM / inhibition at 1.25 µM / inhibition at 2.5 µM / inhibition at 5 µM: read-out: Inhibition: TMPRSS2
Target sequence in this assay (O15393 256-492): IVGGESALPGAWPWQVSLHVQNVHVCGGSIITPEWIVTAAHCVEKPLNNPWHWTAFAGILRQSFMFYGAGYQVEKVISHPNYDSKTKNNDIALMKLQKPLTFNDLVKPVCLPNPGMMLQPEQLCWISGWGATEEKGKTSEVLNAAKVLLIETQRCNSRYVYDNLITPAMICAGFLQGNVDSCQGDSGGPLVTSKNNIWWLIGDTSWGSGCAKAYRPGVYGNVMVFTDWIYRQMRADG
Target sequence in this assay (O15393 other isoform, or with tags, fused parts or gaps): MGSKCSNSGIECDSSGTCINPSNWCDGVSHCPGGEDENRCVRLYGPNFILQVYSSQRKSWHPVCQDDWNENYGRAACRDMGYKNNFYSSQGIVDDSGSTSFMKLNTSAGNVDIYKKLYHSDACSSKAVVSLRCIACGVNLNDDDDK

in vitro = details: human
Calu-3 cells = details: rep1-rep3
TMPRSS2 [2] = target: T1, TMPRSS2
Target sequence in this assay (O15393 with tags, fused parts or gaps): as the sequence (O15393 other isoform, or with tags, fused parts or gaps) above
Target sequence in this assay (O15393 256-492): as the sequence (O15393 256-492) above

In the case of `CN(C)C(=O)COC(=O)Cc1ccc(OC(=O)c2ccc(NC(=N)N)cc2)cc1` [Camostat], the Virus titer (SARS-CoV-2; Camostat 1.1 μM, Supplementary Fig. 7b) is reported as 7460 TCID50/ml and 6320 TCID50/ml and 12600 TCID50/ml, the Virus titer (SARS-CoV-2; Camostat 3.3 μM, Supplementary Fig. 7b) is reported as 26200 TCID50/ml and 15900 TCID50/ml and 20000 TCID50/ml and the “Inhibition: TMPRSS2” value (TMPRSS2 [1]; 38.15 pM) is reported as 2.63% and 1.07% and 2.97% and 3.20%. For the same compound, the “Inhibition: TMPRSS2” value (TMPRSS2 [1]; 76.29 pM) was 3.24% and 1.14% and 2.29% and 3.03%, the “Inhibition: TMPRSS2” value (TMPRSS2 [1]; 0.000152588 µM) was 4.34% and 0.64% and 2.45% and 2.60% and the “Inhibition: TMPRSS2” value (TMPRSS2 [1]; 0.000305176 µM) was 3.31% and 1.96% and 3.39% and 4.38%. For the same compound, the “Inhibition: TMPRSS2” value (TMPRSS2 [1]; 0.000610352 µM) was 3.86% and 5.10% and 6.39%, the “Inhibition: TMPRSS2” value (TMPRSS2 [1]; 0.0012207 µM) was 7.07% and 9.81% and 8.80% and the “Inhibition: TMPRSS2” value (TMPRSS2 [1]; 0.00244141 µM) was 17.35% and 18.09% and 18.86%. The “Inhibition: TMPRSS2” value (TMPRSS2 [1]; 0.00488281 µM) was 31.26% and 30.95% and 31.85%, the “Inhibition: TMPRSS2” value (TMPRSS2 [1]; 0.00976562 µM) was 51.72% and 52.80% and 52.15% and the “Inhibition: TMPRSS2” value (TMPRSS2 [1]; 0.0195312 µM) was 77.54% and 78.82% and 77.32%. For the same compound, the “Inhibition: TMPRSS2” value (TMPRSS2 [1]; 0.0390625 µM) was 94.79% and 94.98% and 94.57%, the “Inhibition: TMPRSS2” value (TMPRSS2 [1]; 0.078125 µM) was 99.75% and 99.96% and 99.42% and the “Inhibition: TMPRSS2” value (TMPRSS2 [1]; 0.15625 µM) was 100.65% and 100.24%. For the same compound, the “Inhibition: TMPRSS2” value (TMPRSS2 [1]; 0.3125 µM) was 99.93% and 100.23% and 99.75%, the “Inhibition: TMPRSS2” value (TMPRSS2 [1]; 0.625 µM) was 100.21% and 100.53% and 100.35% and the “Inhibition: TMPRSS2” value (TMPRSS2 [1]; 1.25 µM) was 99.64% and 100.51%. The “Inhibition: TMPRSS2” value (TMPRSS2 [1]; 2.5 µM) was 100.23% and 100.42% and 100.20%, the “Inhibition: TMPRSS2” value (TMPRSS2 [1]; 5 µM) was 99.87% and 100.54% and 99.70% and the inhibition at 0.000610352 µM (TMPRSS2 [1]) was 6.23%. The inhibition at 0.0012207 µM (TMPRSS2 [1]) was 9.58%, the inhibition at 0.00244141 µM (TMPRSS2 [1]) was 17.5% and the inhibition at 0.00488281 µM (TMPRSS2 [1]) was 31.5%. For the same compound, the inhibition at 0.00976562 µM (TMPRSS2 [1]) was 52.1%, the inhibition at 0.0195312 µM (TMPRSS2 [1]) was 77.3% and the inhibition at 0.0390625 µM (TMPRSS2 [1]) was 94.7%. The inhibition at 0.078125 µM (TMPRSS2 [1]) was 99.7%, the inhibition at 0.15625 µM (TMPRSS2 [1]) was 100% and the inhibition at 0.3125 µM (TMPRSS2 [1]) was 100%. For the same compound, the inhibition at 0.625 µM (TMPRSS2 [1]) was 100%, the inhibition at 1.25 µM (TMPRSS2 [1]) was 100% and the inhibition at 2.5 µM (TMPRSS2 [1]) was 100%. For the same compound, the inhibition at 5 µM (TMPRSS2 [1]) was 100%, the CC50 (in vitro) was 173 µM and the Cytotoxicity (Calu-3 cells; 0.0128 μM) was 0.76% and 0.62% and 0.69%. For the same compound, the Cytotoxicity (Calu-3 cells; 0.064 μM) was 2.27% and 2.13% and 2.46%, the Cytotoxicity (Calu-3 cells; 8 μM) was 7.46% and 7.33% and 7.34% and the Cytotoxicity (Calu-3 cells; 40 μM) was 10.06% and 10.11% and 10.29%. The Cytotoxicity (Calu-3 cells; 200 μM) was 58.17% and 58.19% and 58.30% and the Cytotoxicity (Calu-3 cells; 1000 μM) was 96.27% and 96.26% and 96.22%.
With `O=C(O)CN(CCN(CC(=O)O)CC(=O)O)CC(=O)O` [EDTA] the “Tm of TMPRSS2” value (TMPRSS2 [2]) was 51.7 °C and 51.6 °C.
With `CC(C)(NS(=O)(=O)c1ccc2c(Cl)cnc(N=C(N)N)c2c1)C(=O)O` [UK-371804] the Virus titer (SARS-CoV-2; UK-371804 1.1 μM, Supplementary Fig. 7c) was 31700 TCID50/ml and 20000 TCID50/ml, the “Inhibition: TMPRSS2” value (TMPRSS2 [1]; 0.038147 nM, rep1-rep4, 3.8147e-05 µM) was 0.08% and 2.54% and 1.84% and 2.81% and the “Inhibition: TMPRSS2” value (TMPRSS2 [1]; 0.076294 nM, rep1-rep4, 7.6294e-05 µM) was 0.83% and 3.15% and 2.99% and 4.15%. For the same compound, the “Inhibition: TMPRSS2” value (TMPRSS2 [1]; 0.152588 nM, rep1-rep4, 0.000152588 µM) was 1.86% and 5.33% and 3.17% and 6.82%, the inhibition at 0.000305176 µM (TMPRSS2 [1]; 0.305176 nM, rep1-rep4) was 5.7% and the “Inhibition: TMPRSS2” value (TMPRSS2 [1]; 0.305176 nM, rep1-rep4, 0.000305176 µM) was 8.86% and 5.77% and 9.17%. For the same compound, the IC50 (TMPRSS2 [1]; 0.5 nM TMPRSS2, 10 μM substrate, mean ± SD, four replicates) was 0.00459 µM, the “Inhibition: TMPRSS2” value (TMPRSS2 [1]; 0.610352 nM, rep1-rep4, 0.000610352 µM) was 13.28% and 12.75% and 14.23% and the inhibition at 0.000610352 µM (TMPRSS2 [1]; 0.610352 nM, rep1-rep4) was 10.6%. The “Inhibition: TMPRSS2” value (TMPRSS2 [1]; 1.2207 nM, rep1-rep4, 0.0012207 µM) was 21.81% and 21.57% and 22.98%, the inhibition at 0.0012207 µM (TMPRSS2 [1]; 1.2207 nM, rep1-rep4) was 19.4% and the “Inhibition: TMPRSS2” value (TMPRSS2 [1]; 2.44141 nM, rep1-rep4, 0.00244141 µM) was 37.42% and 35.32% and 36.99%. For the same compound, the inhibition at 0.00244141 µM (TMPRSS2 [1]; 2.44141 nM, rep1-rep4) was 34.9%, the “Inhibition: TMPRSS2” value (TMPRSS2 [1]; 4.88281 nM, rep1-rep4, 0.00488281 µM) was 52.70% and 52.38% and 53.49% and the inhibition at 0.00488281 µM (TMPRSS2 [1]; 4.88281 nM, rep1-rep4) was 50.8%. For the same compound, the “Inhibition: TMPRSS2” value (TMPRSS2 [1]; 9.76562 nM, rep1-rep4, 0.00976562 µM) was 69.20% and 69.17%, the inhibition at 0.00976562 µM (TMPRSS2 [1]; 9.76562 nM, rep1-rep4) was 68.8% and the “Inhibition: TMPRSS2” value (TMPRSS2 [1]; 19.5312 nM, rep1-rep4, 0.0195312 µM) was 82.58% and 82.53% and 82.55%. For the same compound, the inhibition at 0.0195312 µM (TMPRSS2 [1]; 19.5312 nM, rep1-rep4) was 82.4%, the “Inhibition: TMPRSS2” value (TMPRSS2 [1]; 39.0625 nM, rep1-rep4, 0.0390625 µM) was 90.09% and 90.26% and 90.84% and the inhibition at 0.0390625 µM (TMPRSS2 [1]; 39.0625 nM, rep1-rep4) was 90.6%. For the same compound, the “Inhibition: TMPRSS2” value (TMPRSS2 [1]; 78.125 nM, rep1-rep4, 0.078125 µM) was 94.96% and 95.13% and 95.23%, the inhibition at 0.078125 µM (TMPRSS2 [1]; 78.125 nM, rep1-rep4) was 95.3% and the “Inhibition: TMPRSS2” value (TMPRSS2 [1]; 156.25 nM, rep1-rep4, 0.15625 µM) was 97.46% and 97.80% and 98.15%. For the same compound, the inhibition at 0.15625 µM (TMPRSS2 [1]; 156.25 nM, rep1-rep4) was 97.9%, the “Inhibition: TMPRSS2” value (TMPRSS2 [1]; 312.5 nM, rep1-rep4, 0.3125 µM) was 98.77% and 99.07% and 99.48% and the inhibition at 0.3125 µM (TMPRSS2 [1]; 312.5 nM, rep1-rep4) was 99.1%. The “Inhibition: TMPRSS2” value (TMPRSS2 [1]; 625 nM, rep1-rep4, 0.625 µM) was 100.11% and 99.99% and 100.09%, the inhibition at 0.625 µM (TMPRSS2 [1]; 625 nM, rep1-rep4) was 100% and the “Inhibition: TMPRSS2” value (TMPRSS2 [1]; 1250 nM, rep1-rep4, 1.25 µM) was 100.27% and 100.14% and 100.40%. The inhibition at 1.25 µM (TMPRSS2 [1]; 1250 nM, rep1-rep4) was 101%, the “Inhibition: TMPRSS2” value (TMPRSS2 [1]; 2500 nM, rep1-rep4, 2.5 µM) was 100.86% and 100.80% and 100.93% and the inhibition at 2.5 µM (TMPRSS2 [1]; 2500 nM, rep1-rep4) was 101%. The “Inhibition: TMPRSS2” value (TMPRSS2 [1]; 5000 nM, rep1-rep4, 5 µM) was 102.04% and 102.07% and 102.13%, the inhibition at 5 µM (TMPRSS2 [1]; 5000 nM, rep1-rep4) was 101% and the CC50 (in vitro) was 172 µM. For the same compound, the Cytotoxicity (Calu-3 cells; 0.0128 μM) was 4.90% and 4.97% and 4.91%, the Cytotoxicity (Calu-3 cells; 0.064 μM) was 5.03% and 5.08% and 5.05% and the Cytotoxicity (Calu-3 cells; 8 μM) was 8.30% and 8.32% and 8.28%. For the same compound, the Cytotoxicity (Calu-3 cells; 40 μM) was 11.32% and 11.36% and 11.39%, the Cytotoxicity (Calu-3 cells; 200 μM) was 60.70% and 60.73% and 60.71% and the Cytotoxicity (Calu-3 cells; 1000 μM) was 98.32% and 98.37% and 98.33%.
